# According to patent US7820703B2, “Lysophosphatidic acid receptor selective antagonists” (University of Virginia Patent Foundation, priority 2004, dated 2010):
# Entries after “also recorded” stand apart in the source; their conditions may differ.
# Key:
# Format in all cases: biochemical
# LPA1 receptor = molecular target: T1, LPA1 receptor (Mus musculus, UniProt P61793); assay: antagonism of LPA-evoked GTP[γ35S] binding at LPA1; details: for antagonist activity at LPA1, in words: GTP[γ35S] binding; for IC50: antagonism of LPA-evoked GTP[γ35S] binding; for Ki: determined by Schild regression
# T1 construct: expressed in transfected cells; host or cells: HEK293T cells (membranes)
# T1 sequence (P61793 whole entry): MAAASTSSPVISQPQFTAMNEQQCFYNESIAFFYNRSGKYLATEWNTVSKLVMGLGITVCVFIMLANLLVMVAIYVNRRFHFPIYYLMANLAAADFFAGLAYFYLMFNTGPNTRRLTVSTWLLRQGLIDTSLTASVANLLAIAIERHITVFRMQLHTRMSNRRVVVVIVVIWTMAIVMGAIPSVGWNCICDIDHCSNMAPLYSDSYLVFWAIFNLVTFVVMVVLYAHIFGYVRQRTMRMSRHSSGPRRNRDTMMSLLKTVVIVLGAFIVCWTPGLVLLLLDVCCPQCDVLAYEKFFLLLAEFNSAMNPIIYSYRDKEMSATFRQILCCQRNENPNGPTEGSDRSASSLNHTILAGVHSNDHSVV
# Description: (§1) The appropriate receptor plasmid DNA (encoding mouse LPA1, human LPA2 or human LPA3) was mixed with equal amounts of expression plasmids (pcDNA3) encoding a mutated (C351F) rat Gi2a, cow β1, and γ2 proteins and these DNAs were used to transfect monolayers of HEK293T cells (where ‘T’ indicates expression of the SV-40 virus large T antigen) using the calcium phosphate precipitate method. After about 60 hours, cells were harvested, membranes were prepared, aliquoted and stored at −70° C. until use.
# (§2) The GTP[35 γS] assay was performed as described by us previously. Membranes containing 5 ug of protein were incubated in 0.1 ml GTP-binding buffer (in mM: HEPES 50, NaCl 100, MgCl2 10, pH7.5) containing […], […], 0.1 nM GTP[35 γS] (1200 Ci/mmol), and indicated lipid(s) for 30 minutes at 30° C. Samples were analyzed for membrane-bound radionuclide using a Brandel Cell Harvester (Gaithersburg, Md.).
# (§3) The X-intercept of the linear transformation is equal to the inverse log of the KI.
# (§4) All compounds were characterized by ^1H and ^13C NMR, mass spectroscopy and, in certain cases, elemental analysis. A GTP[γ35S] binding assay was adapted to assess in vitro activity.
# (§5) All compounds were characterized by ^1H and ^13C NMR, mass spectroscopy and, in most cases, C, H, N analyses. A membrane-based GTP[γ^35S] binding assay was adapted to assess in vitro activity at the LPA1 and LPA3 receptors.
# human LPA3 [1] = molecular target: T2, human LPA3 (Homo sapiens, UniProt Q9UBY5); assay: antagonism of LPA-evoked GTP[γ35S] binding at LPA3; parameters: expressed in transfected cells; host or cells: HEK293T cells (membranes); details: for antagonist activity at LPA3, in words: GTP[γ35S] binding; for IC50: antagonism of LPA-evoked GTP[γ35S] binding
# T2 sequence (Q9UBY5 1-353): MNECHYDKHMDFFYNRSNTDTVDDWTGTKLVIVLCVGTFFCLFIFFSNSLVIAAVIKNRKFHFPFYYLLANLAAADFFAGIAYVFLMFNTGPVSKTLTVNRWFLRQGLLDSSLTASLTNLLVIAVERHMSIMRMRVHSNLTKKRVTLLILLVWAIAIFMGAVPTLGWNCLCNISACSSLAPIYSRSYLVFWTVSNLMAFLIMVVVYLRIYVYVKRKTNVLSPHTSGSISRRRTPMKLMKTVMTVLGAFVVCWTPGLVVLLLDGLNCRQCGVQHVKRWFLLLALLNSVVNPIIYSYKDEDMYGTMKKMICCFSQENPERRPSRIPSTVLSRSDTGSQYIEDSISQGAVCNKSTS
# Description: as §1, §2, §3, §4, §5
# human LPA3 [2] = molecular target: T2, human LPA3; assay: GTP[γ35S] binding assay, agonist activity at LPA3; parameters: expressed in transfected cells; host or cells: HEK293T cells (membranes); details: for LPA3 Emax: LPA = 100; for EC50: transfected HEK293T cell membranes
# Description: as §1
# as §2, with “Md.). The C351F mutation renders the Gi2α protein resistant to inactivation by pertussis toxin or the alkylating agent N-ethylmaleimide; however in practice background binding was sufficiently low to obviate these maneuvers.” for “Md.).”
# (§6) This assay isolates each recombinant LPA receptor and allows analysis of all three receptors using the same system.
# (§7) Membranes prepared from these cells are used to measure GTPγ[^35S] binding as a function of test compound concentration. The resulting dose-response curves provide relative potency (EC50) and efficacy (Emax) for the test compounds.
# human LPA2 [3] = molecular target: T3, human LPA2 (Homo sapiens, UniProt Q9HBW0); assay: GTP[γ35S] binding assay, agonist activity at LPA2; parameters: expressed in transfected cells; host or cells: HEK293T cells (membranes); details: for LPA2 Emax: LPA = 100; for EC50: transfected HEK293T cell membranes
# T3 sequence (Q9HBW0 whole entry): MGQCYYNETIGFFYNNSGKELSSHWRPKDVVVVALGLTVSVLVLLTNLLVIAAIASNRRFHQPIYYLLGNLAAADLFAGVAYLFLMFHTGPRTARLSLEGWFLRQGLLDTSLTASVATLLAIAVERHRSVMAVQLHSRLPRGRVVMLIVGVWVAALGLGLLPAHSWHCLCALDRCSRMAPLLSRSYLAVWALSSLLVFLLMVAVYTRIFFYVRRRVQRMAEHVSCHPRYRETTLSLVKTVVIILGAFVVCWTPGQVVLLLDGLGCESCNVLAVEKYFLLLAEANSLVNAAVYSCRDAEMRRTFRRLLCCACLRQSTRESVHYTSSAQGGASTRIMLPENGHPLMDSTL
# Description: as §1, §2, §7
# mouse LPA1 = mouse LPA1 (Mus musculus, UniProt P61793); assay: GTP[γ35S] binding assay, agonist activity at LPA1; parameters: expressed in transfected cells; host or cells: HEK293T cells (membranes); details: for LPA1 Emax: LPA = 100; for EC50: transfected HEK293T cell membranes
# mouse LPA1, sequence (P61793 whole entry): as the sequence (P61793 whole entry) above
# Description: as §1
# as §2, with “Md.). The C351F mutation renders the Gi2α protein resistant to inactivation by pertussis toxin or the alkylating agent N-ethylmaleimide; however in practice background binding was sufficiently low to obviate these maneuvers.” for “Md.).”
# as §6, §7
# human LPA2 [4] = molecular target: T3, human LPA2; assay: antagonism of LPA-evoked GTP[γ35S] binding at LPA2; parameters: expressed in transfected cells; host or cells: HEK293T cells (membranes)
# Description: as §1
# as §2, with “Md.). The C351F mutation renders the Gi2α protein resistant to inactivation by pertussis toxin or the alkylating agent N-ethylmaleimide; however in practice background binding was sufficiently low to obviate these maneuvers.” for “Md.).”
# All compounds were characterized by ^1H and ^13C NMR, mass spectroscopy and, in certain cases, elemental analysis. A GTP[γ35S] binding assay was adapted to assess in vitro activity. […] The Ki values as determined by Schild regression are shown for the LPA1 receptor. […]
# LPP3 (PAP2b) = molecular target: T4, LPP3 (PAP2b) (Homo sapiens, UniProt O14495); assay: LPP inhibition, competition with [32P]LPA, LPP3; details: competition with 50 nM [32P]LPA
# T4 sequence (O14495 1-311): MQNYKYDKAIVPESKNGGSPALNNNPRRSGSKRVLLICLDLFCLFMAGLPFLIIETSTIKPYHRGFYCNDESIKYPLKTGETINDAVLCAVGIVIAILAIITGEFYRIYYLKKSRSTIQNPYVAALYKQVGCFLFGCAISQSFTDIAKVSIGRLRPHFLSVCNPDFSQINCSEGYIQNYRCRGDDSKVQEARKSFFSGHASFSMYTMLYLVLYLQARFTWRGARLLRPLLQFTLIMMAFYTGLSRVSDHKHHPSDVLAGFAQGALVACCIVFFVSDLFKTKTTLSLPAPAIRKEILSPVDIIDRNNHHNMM
# Description: NOHPP was also tested for activity at the three cloned LPPs. Although the phosphonate head group eliminates the possibility of NOHPP acting as a substrate, it is possible that the compound could be a competitive inhibitor.
molecule,measurement,setting,value
CCCCCCCC/C=C\CCCCCCCC(=O)N[C@@H](CCP(=O)(O)O)Cc1ccc(OCc2ncc(C)c(OC)c2C)cc1 [Compound 63d],"antagonist activity at LPA1, in words",LPA1 receptor,no antagonism
same,IC50,LPA1 receptor,> 10000 nM
same,"antagonist activity at LPA3, in words",human LPA3 [1],improved potency over lead compound 26a
same,IC50,human LPA3 [1],150 nM
CCCCCCCC/C=C\CCCCCCCC(=O)N[C@@H](CN)COP(=O)(O)O [Compound 12048],LPA3 Emax,human LPA3 [2],3.8
same,EC50,human LPA3 [2],> 5000 nM
same,LPA2 Emax,human LPA2 [3],36.4
same,EC50,human LPA2 [3],> 5000 nM
same,LPA1 Emax,mouse LPA1,9.4
same,EC50,mouse LPA1,> 5000 nM
CCCCCC=CCC=CCCCCCCCC(=O)NC(COP(=O)(O)O)Cc1ccc(OCc2ccccc2)cc1 (stereo not shown) [Compound 29e],"antagonist activity at LPA1, in words",LPA1 receptor,potency comparable to lead compound 26
CCCCCCCC/C=C\CCCCCCCC(=O)N[C@H](CO)COP(=O)(O)O [VPC31143],"agonist activity at LPA1, in words",mouse LPA1,more potent than 1-oleoyl LPA
"1-acyl, 2-hydroxyl-sn-glycerol-3-phosphate [LPA, reference compound]",LPA3 Emax,human LPA3 [2],100
same,EC50,human LPA3 [2],262 nM
same,EC50,human LPA2 [3],6.8 nM
CCCCCCCC/C=C\CCCCCCCC(=O)N[C@H](COP(=O)(O)O)C(=O)c1ccc(OCc2ccccc2)cc1 [Compound 39b],"antagonist activity at LPA1, in words",LPA1 receptor,retains potency comparable to 26
same,IC50,LPA1 receptor,2490 nM
same,IC50,human LPA3 [1],> 10000 nM
CCCCCCCC/C=C\CCCCCCCC(=O)N[C@@H](C)COP(=O)(O)O [VPC12101],LPA3 Emax,human LPA3 [2],9.7
same,EC50,human LPA3 [2],> 5000 nM
same,LPA2 Emax,human LPA2 [3],6.9
same,EC50,human LPA2 [3],> 5000 nM
same,LPA1 Emax,mouse LPA1,48.1
same,EC50,mouse LPA1,2900 nM
CCCCCCCC/C=C\CCCCCCCC(=O)N[C@H](CC)COP(=O)(O)O [VPC12109],LPA3 Emax,human LPA3 [2],83.5
same,EC50,human LPA3 [2],1080 nM
same,LPA2 Emax,human LPA2 [3],92.6
same,EC50,human LPA2 [3],162 nM
same,LPA1 Emax,mouse LPA1,66.8
same,EC50,mouse LPA1,35.8 nM
CCCCCCCC/C=C\CCCCCCCC(=O)N[C@@H](COP(=O)(O)O)C(=O)c1ccc(OCc2ccccc2)cc1 [Compound 39a],IC50,LPA1 receptor,> 10000 nM
same,IC50,human LPA3 [1],> 10000 nM
CCCCCCCC/C=C\CCCCCCCC(=O)N[C@@H](COP(=O)(O)O)Cc1ccc(OCc2ccc(CCCCC)cc2)cc1 [VPC31162],"agonist activity at LPA3, in words",human LPA3 [2],agonist
same,"antagonist activity at LPA2, in words",human LPA2 [4],antagonist activity
same,"agonist activity at LPA1, in words",mouse LPA1,agonist
CCCCCCCC/C=C\CCCCCCCC(=O)N[C@@H](COP(=O)(O)O)Cc1ccc(OCc2cc(OCC)ccn2)cc1 [Compound 57h],IC50,LPA1 receptor,143 nM
same,Ki,LPA1 receptor,26 nM
same,IC50,human LPA3 [1],39 nM
CCCCCCCCC=CCCCCCCCC(=O)NC(COP(=O)(O)O)Cc1ccc(OCc2cc(OCC(F)(F)F)ccn2)cc1 (stereo not shown) [Compound 57i],"antagonist activity at LPA1, in words",LPA1 receptor,equipotent to 26a
same,IC50,LPA1 receptor,84 nM
same,Ki,LPA1 receptor,19 nM
same,"antagonist activity at LPA3, in words",human LPA3 [1],three-fold more potent
same,IC50,human LPA3 [1],48 nM
CCCCCCCC/C=C\CCCCCCCC(=O)N[C@H](CN)COP(=O)(O)O [VPC12178],LPA3 Emax,human LPA3 [2],102.9
same,EC50,human LPA3 [2],684 nM
same,LPA2 Emax,human LPA2 [3],103.2
same,EC50,human LPA2 [3],50.3 nM
same,"agonist activity at LPA1, in words",mouse LPA1,more potent than 1-oleoyl LPA
same,LPA1 Emax,mouse LPA1,98.7
same,EC50,mouse LPA1,4.9 nM
CCCCCCCC/C=C\CCCCCCCC(=O)N[C@@H](COP(=O)(O)O)Cc1ccc(OCc2cc(OCCC)ccn2)cc1 [Compound 57j],IC50,LPA1 receptor,141 nM
same,Ki,LPA1 receptor,64 nM
CCCCCCCC/C=C\CCCCCCCC(=O)NCCC(=O)P(=O)(O)O [VPC12060],inhibition of LPP3,LPP3 (PAP2b),markedly better at the PAP2b (LPP3) than PAP2a (LPP1)
CCCCCCCC/C=C\CCCCCCCC(=O)N[C@H](COP(=O)(O)O)Cc1ccc(OCc2ncc(C)c(OC)c2C)cc1 [Compound 57m],IC50,LPA1 receptor,3690 nM
same,IC50,human LPA3 [1],561 nM
CCCCCCCC/C=C\CCCCCCCC(=O)N[C@@H](COP(=O)(O)O)Cc1ccc(OCc2ccc3ccccc3n2)cc1 [Compound 57n],IC50,LPA1 receptor,1430 nM
same,IC50,human LPA3 [1],533 nM
CCCCCCCC/C=C\CCCCCCCC(=O)N[C@@H](COP(=O)(O)O)Cc1ccc(OCc2ncc(C)c(OC)c2C)cc1 [Compound 57l],IC50,LPA1 receptor,62 nM
same,Ki,LPA1 receptor,28 nM
same,IC50,human LPA3 [1],39 nM
CCCCCCCC/C=C\CCCCCCCC(=O)N[C@H](COP(=O)(O)O)Cc1ccc(OCc2cccc(OC)n2)cc1 [Compound 57f],IC50,LPA1 receptor,> 10000 nM
same,IC50,human LPA3 [1],1090 nM
CCCCCCCC/C=C\CCCCCCCC(=O)N[C@H](COP(=O)(O)O)Cc1ccc(OCc2cc(OC)c3ccccc3n2)cc1 [Compound 57p],IC50,LPA1 receptor,> 10000 nM
same,IC50,human LPA3 [1],2600 nM
CCCCCCCC/C=C\CCCCCCCC(=O)N[C@H](C)COP(=O)(O)O [VPC12086],LPA3 Emax,human LPA3 [2],93.4
same,EC50,human LPA3 [2],113 nM
same,LPA2 Emax,human LPA2 [3],95.2
same,EC50,human LPA2 [3],18.3 nM
same,"agonist activity at LPA1, in words",mouse LPA1,more potent and efficacious than LPA; also recorded: more potent than 1-oleoyl LPA
same,LPA1 Emax,mouse LPA1,107.6
same,EC50,mouse LPA1,3.4 nM
CCCCCCCCC=CCCCCCCCC(=O)NC(COP(=O)(O)O)Cc1ccc(OC(=O)c2ccc(N)cc2)cc1 (stereo not shown) [Compound 35p],"antagonist activity at LPA1, in words",LPA1 receptor,devoid of activity
same,"antagonist activity at LPA3, in words",human LPA3 [1],devoid of activity
